Source: PubChem BioAssay AID330 (DTP/NCI, 2004)
Values joined by “and” are separate entries in the source; they are usually repeats but may differ in a detail not shown here. Identical values can stand only once. Toxic doses and inconclusive results are not listed. How the source made its calls: active means survival T/C of 150% or more; inactive means T/C below 125% in these data.

Tested on: P388 leukemia ip, CD2F1 mice, survival T/C
Assay: NCI In Vivo Anticancer Drug Screen. Data for tumor model P388 Leukemia (intraperitoneal) in CD2F1 (CDF1) mice
Conditions: endpoint: median survival time, higher = longer survival
Summary of the method: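 Mice carrying the transplanted tumor received test compound or vehicle. Survival was recorded in each group, and the value is the treated-group measurement divided by that of the vehicle-treated control group.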

[1] = dose: 12.5 mg/kg/injection, schedule: Q01DX009 (ip), vehicle: distilled water + Tween-80
[2] = dose: 25.0 mg/kg/injection, schedule: Q01DX009 (ip), vehicle: distilled water + Tween-80
[3] = dose: 50.0 mg/kg/injection, schedule: Q01DX009 (ip), vehicle: distilled water + Tween-80
[4] = dose: 100.0 mg/kg/injection, schedule: Q01DX009 (ip), vehicle: distilled water + Tween-80
[5] = dose: 200.0 mg/kg/injection, schedule: Q01DX009 (ip), vehicle: distilled water + Tween-80
[6] = dose: 60.0 mg/kg/injection, schedule: Q01DX005 (ip), vehicle: saline with Tween-80
[7] = dose: 120.0 mg/kg/injection, schedule: Q01DX005 (ip), vehicle: saline with Tween-80
[8] = dose: 240.0 mg/kg/injection, schedule: Q01DX005 (ip), vehicle: saline with Tween-80
[9] = dose: 100.0 mg/kg/injection, schedule: Q01DX001 (ip), vehicle: saline
[10] = dose: 200.0 mg/kg/injection, schedule: Q01DX001 (ip), vehicle: saline
[11] = dose: 400.0 mg/kg/injection, schedule: Q01DX001 (ip), vehicle: saline
[12] = dose: 30.0 mg/kg/injection, schedule: Q01DX005 (ip), vehicle: saline with Tween-80
[13] = dose: 50.0 mg/kg/injection, schedule: Q01DX005 (ip), vehicle: saline with Tween-80
[14] = dose: 100.0 mg/kg/injection, schedule: Q01DX005 (ip), vehicle: saline with Tween-80
[15] = dose: 200.0 mg/kg/injection, schedule: Q01DX005 (ip), vehicle: saline with Tween-80
[16] = dose: 50.0 mg/kg/injection, schedule: Q01DX005 (ip), vehicle: Klucel (hydroxypropylcellulose) (HPC)
[17] = dose: 100.0 mg/kg/injection, schedule: Q01DX005 (ip), vehicle: Klucel (hydroxypropylcellulose) (HPC)
[18] = dose: 200.0 mg/kg/injection, schedule: Q01DX005 (ip), vehicle: Klucel (hydroxypropylcellulose) (HPC)
[19] = dose: 50.0 mg/kg/injection, schedule: Q01DX009 (ip), vehicle: Klucel (hydroxypropylcellulose) (HPC)
[20] = dose: 100.0 mg/kg/injection, schedule: Q01DX009 (ip), vehicle: Klucel (hydroxypropylcellulose) (HPC)
[21] = dose: 200.0 mg/kg/injection, schedule: Q01DX009 (ip), vehicle: Klucel (hydroxypropylcellulose) (HPC)
[22] = dose: 15.0 mg/kg/injection, schedule: Q01DX005 (ip), vehicle: saline with Tween-80
[23] = dose: 12.5 mg/kg/injection, schedule: Q01DX009 (ip), vehicle: Klucel (hydroxypropylcellulose) (HPC)
[24] = dose: 25.0 mg/kg/injection, schedule: Q01DX009 (ip), vehicle: Klucel (hydroxypropylcellulose) (HPC)

Measured: T/C

Nc1nc(N)nc(CCC(Cl)(Cl)Cl)n1
inactive: [1] 100 % of control | [2] 100 % of control | [3] 95 % of control | [4] 95 % of control | [5] 100 % of control

CC(=O)OCCOCNC(=S)NN
inactive: [6] 101 % of control | [7] 101 % of control | [8] 90 % of control

OCC1OC(OCC2OC(OC3(CO)OC(CO)C(O)C3O)C(O)C(O)C2O)C(O)C(O)C1O (configuration not stated)
inactive: [9] 102 % of control | [10] 103 % of control | [11] 93 % of control

C=CCNC(=S)n1cnc(N)n1
inactive: [12] 107 % of control | [6] 105 % of control and 108 % of control | [7] 115 % of control and 96 % of control

CC(=O)OCC1OC(Oc2ccc(C=C(C(C)=O)C(C)=O)cc2)C(OC(C)=O)C(OC(C)=O)C1OC(C)=O (configuration not stated)
inactive: [13] 105 % of control | [14] 101 % of control | [15] 104 % of control

COc1cc(O)cc2c1C(=O)C(C)O2 (configuration not stated)
inactive: dose: 60.0 mg/kg/injection, schedule: Q01DX005 (ip), vehicle: Klucel (hydroxypropylcellulose) (HPC) 101 % of control | dose: 120.0 mg/kg/injection, schedule: Q01DX005 (ip), vehicle: Klucel (hydroxypropylcellulose) (HPC) 101 % of control | dose: 240.0 mg/kg/injection, schedule: Q01DX005 (ip), vehicle: Klucel (hydroxypropylcellulose) (HPC) 91 % of control

Cc1cc2c(cc1C)NC(C)CC(=O)N2 (configuration not stated)
inactive: dose: 100.0 mg/kg/injection, schedule: Q04DX003 (ip), vehicle: saline with Tween-80 109 % of control | dose: 200.0 mg/kg/injection, schedule: Q04DX003 (ip), vehicle: saline with Tween-80 95 % of control

Cc1nc(C(=O)OCc2ccccc2)cc(OCc2ccccc2)c1C
inactive: [1] 101 % of control | [2] 90 % of control | [3] 95 % of control | [4] 90 % of control | [5] 93 % of control

C[C@H]1CCC2=C(C1)NC(N)=NC2(C)C
inactive: dose: 12.5 mg/kg/injection, schedule: Q04DX002 (ip), vehicle: saline with Tween-80 93 % of control | dose: 25.0 mg/kg/injection, schedule: Q04DX002 (ip), vehicle: saline with Tween-80 93 % of control | dose: 50.0 mg/kg/injection, schedule: Q04DX002 (ip), vehicle: saline with Tween-80 98 % of control

CC(C)CC(NC(=O)C(CCCCN)N(C(=O)OCc1ccccc1)C(=O)OCc1ccccc1)C(=O)O (configuration not stated)
inactive: [13] 99 % of control | [14] 99 % of control | [15] 90 % of control

CCOC(=O)Cn1nc2oc(=O)c(CCN3CCN(c4ccccc4OC)CC3)c(C)c2c1C
inactive: dose: 25.0 mg/kg/injection, schedule: Q01DX005 (ip), vehicle: Klucel (hydroxypropylcellulose) (HPC) 103 % of control | [16] 100 % of control | [17] 87 % of control | [18] 109 % of control

COc1cc2ccc(/C=C/C(=O)c3ccc4c(c3)OCO4)cc2cc1OC
inactive: dose: 25.0 mg/kg/injection, schedule: Q01DX009 (ip), vehicle: water 103 % of control | dose: 50.0 mg/kg/injection, schedule: Q01DX009 (ip), vehicle: water 98 % of control | dose: 100.0 mg/kg/injection, schedule: Q01DX009 (ip), vehicle: water 97 % of control | dose: 200.0 mg/kg/injection, schedule: Q01DX009 (ip), vehicle: water 98 % of control | dose: 400.0 mg/kg/injection, schedule: Q01DX009 (ip), vehicle: water 91 % of control

O=S1(=O)C(c2ccccc2)=C(O)c2cc3ccccc3nc21
inactive: dose: 50.0 mg/kg/injection, schedule: Q01DX009 (ip), vehicle: saline with Tween-80 107 % of control | dose: 100.0 mg/kg/injection, schedule: Q01DX009 (ip), vehicle: saline with Tween-80 112 % of control | dose: 200.0 mg/kg/injection, schedule: Q01DX009 (ip), vehicle: saline with Tween-80 107 % of control

CC(=O)OC1(c2nccc3ccccc23)CCN(Cc2ccccc2)CC1
inactive: [19] 106 % of control | [20] 106 % of control | [21] 102 % of control

Cc1cnc(F)nc1F
inactive: dose: 50.0 mg/kg/injection, schedule: Q01DX005 (ip), vehicle: saline 94 % of control | dose: 100.0 mg/kg/injection, schedule: Q01DX005 (ip), vehicle: saline 97 % of control

CCc1nc(N)nc(N)c1-c1ccc(NCCCCCCCCCCCCN)c([N+](=O)[O-])c1
inactive: [22] 117 % of control | [12] 107 % of control | [7] 91 % of control

Cc1cc(C=C2C(=O)NC(=S)NC2=O)cc(C)c1O
inactive: dose: 12.5 mg/kg/injection, schedule: Q01DX005 (ip), vehicle: saline with Tween-80 101 % of control and 96 % of control and 97 % of control | dose: 25.0 mg/kg/injection, schedule: Q01DX005 (ip), vehicle: saline with Tween-80 105 % of control and 106 % of control and 118 % of control

CC(C)=CN=Cc1nc(Cc2ccccc2)oc1O
inactive: [6] 105 % of control | [7] 96 % of control | [8] 94 % of control

Cc1cc(C)c(S(=O)(=O)Sc2nnnn2C)c(C)c1
inactive: [23] 102 % of control | [24] 104 % of control | [19] 95 % of control and 98 % of control | [21] 98 % of control

C/C(=N\N)C1=NNC(C)(C)NN1
inactive: [19] 96 % of control | [20] 96 % of control | [21] 98 % of control

CCCCCCCCCCCCCCCCCC[N+]1(CC)CCOCC1
inactive: dose: 0.78 mg/kg/injection, schedule: Q01DX009 (ip), vehicle: saline 87 % of control and 90 % of control | dose: 1.56 mg/kg/injection, schedule: Q01DX009 (ip), vehicle: saline 106 % of control and 87 % of control and 88 % of control | dose: 3.12 mg/kg/injection, schedule: Q01DX009 (ip), vehicle: saline 111 % of control and 87 % of control and 88 % of control | dose: 25.0 mg/kg/injection, schedule: Q01DX009 (ip), vehicle: saline 86 % of control | dose: 50.0 mg/kg/injection, schedule: Q01DX009 (ip), vehicle: saline 96 % of control | dose: 100.0 mg/kg/injection, schedule: Q01DX009 (ip), vehicle: saline 88 % of control | dose: 200.0 mg/kg/injection, schedule: Q01DX009 (ip), vehicle: saline 100 % of control

OCC(O)C(O)C(O)C(O)c1nn[nH]n1 (configuration not stated)
inactive: [9] 95 % of control | [10] 101 % of control | [11] 92 % of control

COC(=O)/C(C#N)=C(C)/C=C/c1ccc(OC)cc1
inactive: dose: 100.0 mg/kg/injection, schedule: Q04DX003 (ip), vehicle: saline 97 % of control | dose: 200.0 mg/kg/injection, schedule: Q04DX003 (ip), vehicle: saline 92 % of control | dose: 400.0 mg/kg/injection, schedule: Q04DX003 (ip), vehicle: saline 98 % of control

COc1cc(NC(C)=O)c2ncccc2c1NC(C)=O
inactive: [16] 99 % of control | [17] 96 % of control | [18] 87 % of control

O=C1CN(c2cccc(Cl)c2)C(=O)CN1/N=C/c1ccccn1
inactive: [13] 100 % of control | [14] 106 % of control | [15] 100 % of control

Cn1c2nc3ccccc3c-2nc2ccccc21
inactive: dose: 1.56 mg/kg/injection, schedule: Q01DX009 (ip), vehicle: water 100 % of control | dose: 3.13 mg/kg/injection, schedule: Q01DX009 (ip), vehicle: water 92 % of control | dose: 6.25 mg/kg/injection, schedule: Q01DX009 (ip), vehicle: water 88 % of control | [23] 92 % of control | [24] 99 % of control | [19] 109 % of control | [20] 106 % of control | [21] 107 % of control

COC(=O)C(NP(=O)(NC(C(=O)OC)c1ccccc1)N(CCCl)CCCl)c1ccccc1 (configuration not stated)
inactive: dose: 7.5 mg/kg/injection, schedule: Q01DX005 (ip), vehicle: saline with Tween-80 102 % of control | [22] 100 % of control | [12] 101 % of control

CN(C)/C=C1\C(=O)O[C@H]2CCC[C@@]12C
inactive: dose: 100.0 mg/kg/injection, schedule: Q01DX001 (ip), vehicle: saline with Tween-80 107 % of control | dose: 200.0 mg/kg/injection, schedule: Q01DX001 (ip), vehicle: saline with Tween-80 106 % of control
